Legend:
[1] = tested on: experimental allergic encephalitis (EAE); test: EAE treatment, AA from earliest onset of paralytic signs; type: in vivo, mice
Text: (§1) The data is expressed as a percent area of myelin loss in three non-contiguous axial sections of the spinal cord; p<0.01 between treated and untreated groups when AA is given beginning day 0 or from the onset of symptoms.
(§2) Experimental allergic encephalitis (“EAE”) is an autoimmune inflammatory demyelinating disease of the CNS. For experimental purposes, the disease is induced in animals by immunizing the animals with myelin antigens in adjuvant. […] Ten to twelve days after immunization, paralysis develops in the animals. The degree of paralysis is scored as follows: 1=limp tail, 2=ataxia of gait and paralysis of one or more limbs, 3=paralysis of two or more limbs, 4=weakness of all limbs, 5=death.
To determine if treatment with AA would promote recovery after paralytic attack, the experiment shown in FIG. 13 was repeated but treatment with AA was not initiated until the earliest sign of disease appeared which occurred between days 11 and 12 following the initial immunization with MOG antigen. In the experiment, 10 mice were administered 0.25 mg/kg AA a day in DMSO and 10 mice were administered DMSO (vehicle). In the 10 mice that received 0.25 mg/kg AA a day, there was no difference in the mean maximal severity of the disease when compared to vehicle treated mice. The mean maximal severity was 2.8 in the vehicle treated group and was 2.6 in the AA treated group. However, there was a rapid reversal of paralysis in the AA treated group.
When AA was administered at the earliest onset of clinical signs of paralysis, the percent demyelination score in the AA treated group was 2.9. In comparison, in the vehicle treated group the percent demyelination score was 7.2 (P<0.01) (FIG. 15).

IL-33 protein in OPCs = test: Western blot of IL-33 protein in OPCs (nuclear extracts) cultured with AA; type: cell-based, rat; details: for increase in the protein level of IL-33: OPCs
Procedure: FIG. 5 (top) provides the results of Western blot studies showing increased expression of IL-33 in the presence of AA in OPCs. […] Because IL-33 is mainly in the nucleus, the Wester blots were done with nuclear extracts and Lamin was used as the control.
In addition, at a dose of 2.5 μM of AA, there was a 1.8 fold increase in the protein level of IL-33, and at a dose of 7.5 μM of AA, there was a 3.1 fold increase in the protein level of IL-33 (FIG. 5).

[2] = tested on: experimental allergic encephalitis (EAE); test: EAE prevention, AA from day of immunization with MOG peptide; type: in vivo, mice
Text: In two experiments, only 2 of 10 mice in the AA treated group developed grade 1 paralysis. In the vehicle treated group, 9 out of 10 mice developed paralysis. Clinical scoring: 1=limp tail, 2=ataxia of gait and paralysis of one or more limbs, 3=paralysis of two or more limbs, 4=weakness of all limbs, 5=death.
as §1, §2
The EAE model has been used extensively to examine the efficacy of potential drugs for MS therapy. The efficacy of AA in preventing EAE in mice immunized with MOG peptide in adjuvant was tested. A total of 10 mice were administered 0.25 mg/kg of AA dissolved in DMSO (vehicle) and a total of 10 mice were administered the vehicle alone by intraperitoneal injection daily for the entire length of the study (28 days). AA was obtained from commercial sources. Nine of 10 animals in the vehicle group developed paralytic signs, with a mean maximal paralytic score of 2.66. Two of 10 animals that received AA developed paralysis which was scored as a grade 1 paralysis (P<0.01 treated versus placebo). There was also significant decrease in the loss of myelin in the […]. (FIG. 13).
To confirm that the clinical scores calculated in the EAR experiments reflect pathology, the extent of demyelination in the cervical, thoracolumbar cord of each mouse in the vehicle treated and AA treated groups was examined. […]

[3] = tested on: myelin genes Mbp, Mog and Plp and transcription elements Sp1, Sox10 and Purα in OPCs; test: qPCR analysis of myelin gene expression in OPCs treated with AA; type: cell-based, rat; details: AA 2.5 μM, 3 hours
Procedure: Mbp=myelin basic protein, Plp=proteolipoprotein, Mog=myelin oligodendrocyte glycoprotein.
The effect of AA on the expression of myelin genes, MBP, and IL-33 was examined. […] Natarajan et al., PLOS One, 11(3):e0152163 (2016); Sriram et al., Neurology, Abstract presented at the American Academy of Neurology, 2016 (2016). The studies were done in OPCs obtained from rat pups. OPCs were treated with AA (2.5 μM) for 3 hours and message levels were quantified using qPCR analysis. OPCs treated with AA induced the major myelin genes Mbp, Mog and Plp.

For CCCCCCCCCCCCCCCc1cccc(O)c1C(=O)O [AA, anacardic acid], the “mean maximal severity (clinical score)” value ([1]; AA 0.25 mg/kg a day from earliest sign of disease (days 11-12), vehicle 2.8) was 2.6, the percent demyelination score ([1]; AA 0.25 mg/kg/day from earliest onset of clinical signs, vehicle 7.2, P<0.01) was 2.9% and the recovery from paralysis ([1]; by day 24, AA 0.25 mg/kg a day from onset, one animal grade 2 weakness) was “all the other mice had fully recovered”. For the same compound, the “increase in IL-33 protein expression (image analysis of gels, FIG. 5)” value (IL-33 protein in OPCs; OPCs nuclear extracts, Lamin control, concentration not given) was 1.6 fold, the “increase in the protein level of IL-33” value (IL-33 protein in OPCs; AA 2.5 μM) was 1.8 fold and the “increase in the protein level of IL-33” value (IL-33 protein in OPCs; AA 7.5 μM) was 3.1 fold. The “demyelination in the spinal cord” value ([2]; AA 0.25 mg/kg daily from day 0, vehicle 9.9+/−4.0 percent) was “no demyelination”, the “animals that developed paralysis” value ([2]; AA 0.25 mg/kg ip daily for 28 days from immunization, vehicle nine of 10, P<0.01) was 2 of 10 and Two of 10 and the “grade of paralysis (clinical score 1-5)” value ([2]; AA 0.25 mg/kg ip daily from immunization, affected animals) was 1. The “expression of major myelin genes Mbp, Mog and Plp (message levels, qPCR)” value [3] was “induced” and the “expression of transcription elements Sp1, Sox10 and Purα that bind the Mbp promoter (qPCR)” value [3] was “upregulation”.

From patent publication US12083134B2, “Anacardic acid for neural repair” (Vanderbilt University, priority 2018, dated 2024)
